± gives the expanded uncertainty stated by the source.
Conditions: 101.33 kPa, Liquid; for viscosity: Concentric cylinders viscometry; for mass density: Vibrating tube method

COCC[N+]1(C)CCCC1.O=S(=O)([N-]S(=O)(=O)C(F)(F)F)C(F)(F)F
Conditions	mass density [kg/m3]	viscosity [mPa·s]
258.15 K	1494.1 ± 2.1	620.3 ± 25
263.15 K	1488.7 ± 2.1	412.3 ± 16
268.15 K	1483.6 ± 2.1	286.4 ± 9.8
273.15 K	1478.5 ± 2.1	204.56 ± 6.4
278.15 K	1473.7 ± 2.1	149.89 ± 4.3
283.15 K	1468.8 ± 2	112.96 ± 3
288.15 K	1464 ± 2	87.14 ± 2.2
293.15 K	1459.3 ± 2	68.61 ± 1.7
298.15 K	1454.7 ± 2	55.06 ± 1.3
303.15 K	1450 ± 2	44.9 ± 1.1
308.15 K	1445.2 ± 2	37.15 ± 0.88
313.15 K	1440.5 ± 2	31.15 ± 0.73
318.15 K	1435.9 ± 2	26.43 ± 0.62
323.15 K	1431.2 ± 2	22.66 ± 0.53
328.15 K	1426.6 ± 2	19.59 ± 0.46
333.15 K	1422 ± 1.9	17.09 ± 0.4
338.15 K	1417.4 ± 1.9	15.03 ± 0.35
343.15 K	1412.9 ± 1.9	13.32 ± 0.31
348.15 K	1408.2 ± 1.9	11.88 ± 0.27
353.15 K	1403.3 ± 1.9	10.66 ± 0.24
358.15 K	1398.6 ± 1.9	9.617 ± 0.22
363.15 K	1394.2 ± 1.9	8.718 ± 0.2
368.15 K	1389.9 ± 1.9	7.94 ± 0.18
373.15 K	1385.7 ± 1.9	7.263 ± 0.17

CCCC[N+]1(C)CCCC1.O=S(=O)([N-]S(=O)(=O)C(F)(F)F)C(F)(F)F
Conditions	mass density [kg/m3]	viscosity [mPa·s]
278.15 K	1412.9 ± 1.9	230.3 ± 7.2
283.15 K	1408.3 ± 1.9	169.6 ± 5
288.15 K	1403.8 ± 1.9	128 ± 3.5
293.15 K	1399.3 ± 1.9	98.74 ± 2.6
298.15 K	1394.9 ± 1.9	77.65 ± 1.9
303.15 K	1390.5 ± 1.9	62.14 ± 1.5
308.15 K	1386.1 ± 1.9	50.52 ± 1.2
313.15 K	1381.8 ± 1.9	41.65 ± 0.99
318.15 K	1377.4 ± 1.9	34.78 ± 0.82
323.15 K	1373 ± 1.8	29.38 ± 0.69
328.15 K	1368.7 ± 1.8	25.07 ± 0.59
333.15 K	1364.3 ± 1.8	21.6 ± 0.5
338.15 K	1360 ± 1.8	18.77 ± 0.44
343.15 K	1355.7 ± 1.8	16.44 ± 0.38
348.15 K	1351.4 ± 1.8	14.5 ± 0.34
353.15 K	1346.9 ± 1.8	12.87 ± 0.3
358.15 K	1342.5 ± 1.8	11.5 ± 0.27
363.15 K	1338.3 ± 1.8	10.33 ± 0.24
368.15 K	1334.3 ± 1.8	9.32 ± 0.21
373.15 K	1330.3 ± 1.8	8.454 ± 0.19

CCOS(=O)(=O)[O-].CCn1cc[n+](C)c1 [1-ethyl-3-methylimidazolium ethyl sulfate]
Conditions	mass density [kg/m3]	viscosity [mPa·s]
253.15 K	1270.6 ± 1.7	3146.4 ± 190
258.15 K	1266.9 ± 1.6	1789.6 ± 97
263.15 K	1263.3 ± 1.6	1094.4 ± 53
268.15 K	1259.5 ± 1.6	700.85 ± 30
273.15 K	1255.7 ± 1.6	466.03 ± 18
278.15 K	1252 ± 1.6	321.37 ± 11
283.15 K	1248.3 ± 1.6	229.15 ± 7.4
288.15 K	1244.8 ± 1.6	168.31 ± 5
293.15 K	1241.3 ± 1.6	126.89 ± 3.5
298.15 K	1237.8 ± 1.6	97.84 ± 2.5
303.15 K	1234.4 ± 1.6	77.01 ± 1.9
308.15 K	1231 ± 1.6	61.71 ± 1.5
313.15 K	1227.6 ± 1.6	50.25 ± 1.2
318.15 K	1224.2 ± 1.6	41.51 ± 0.99
323.15 K	1220.8 ± 1.6	34.73 ± 0.82
328.15 K	1217.4 ± 1.6	29.4 ± 0.69
333.15 K	1214 ± 1.6	25.15 ± 0.59
338.15 K	1210.6 ± 1.6	21.72 ± 0.51
343.15 K	1207.2 ± 1.5	18.91 ± 0.44
348.15 K	1203.8 ± 1.5	16.6 ± 0.38
353.15 K	1200.4 ± 1.5	14.68 ± 0.34
358.15 K	1197.2 ± 1.5	13.06 ± 0.3
363.15 K	1194.1 ± 1.5	11.69 ± 0.27
368.15 K	1191.1 ± 1.5	10.52 ± 0.24
373.15 K	1188.2 ± 1.5	9.518 ± 0.22

CCCCCCCCCCCCCC[P+](CCCCCC)(CCCCCC)CCCCCC.FC(F)(F)C(F)(F)[P-](F)(F)(F)(C(F)(F)C(F)(F)F)C(F)(F)C(F)(F)F
Conditions	mass density [kg/m3]	viscosity [mPa·s]
268.15 K	1207.4 ± 1.5	3067.3 ± 180
273.15 K	1203.2 ± 1.5	2010 ± 110
278.15 K	1198.9 ± 1.5	1345.2 ± 66
283.15 K	1194.6 ± 1.5	928.39 ± 42
288.15 K	1190.3 ± 1.5	654.2 ± 27
293.15 K	1186 ± 1.5	471.76 ± 18
298.15 K	1181.7 ± 1.5	347.06 ± 12
303.15 K	1177.6 ± 1.5	260.12 ± 8.4
308.15 K	1173.5 ± 1.5	198.3 ± 6
313.15 K	1169.4 ± 1.5	153.61 ± 4.3
318.15 K	1165.3 ± 1.5	120.76 ± 3.2
323.15 K	1161.3 ± 1.5	96.23 ± 2.4
328.15 K	1157.3 ± 1.5	77.68 ± 1.9
333.15 K	1153.3 ± 1.5	63.45 ± 1.5
338.15 K	1149.3 ± 1.5	52.39 ± 1.2
343.15 K	1145.3 ± 1.4	43.71 ± 1
348.15 K	1141.2 ± 1.4	36.8 ± 0.87
353.15 K	1137 ± 1.4	31.27 ± 0.73
358.15 K	1132.7 ± 1.4	26.79 ± 0.63
363.15 K	1128.7 ± 1.4	23.12 ± 0.54
368.15 K	1124.9 ± 1.4	20.09 ± 0.47
373.15 K	1121.1 ± 1.4	17.57 ± 0.41

CCCC[N+]1(C)CCCC1.FC(F)(F)C(F)(F)[P-](F)(F)(F)(C(F)(F)C(F)(F)F)C(F)(F)C(F)(F)F
Conditions	mass density [kg/m3]	viscosity [mPa·s]
283.15 K	1599.8 ± 2.4	593.7 ± 24
288.15 K	1594.2 ± 2.3	409.8 ± 15
293.15 K	1588.6 ± 2.3	291.5 ± 9.9
298.15 K	1583.2 ± 2.3	213.1 ± 6.7
303.15 K	1577.9 ± 2.3	159.61 ± 4.6
308.15 K	1572.6 ± 2.3	122.18 ± 3.3
313.15 K	1567.4 ± 2.3	95.36 ± 2.4
318.15 K	1562.1 ± 2.3	75.75 ± 1.9
323.15 K	1556.9 ± 2.3	61.13 ± 1.5
328.15 K	1551.7 ± 2.2	50.03 ± 1.2
333.15 K	1546.6 ± 2.2	41.48 ± 0.98
338.15 K	1541.5 ± 2.2	34.79 ± 0.82
343.15 K	1536.3 ± 2.2	29.49 ± 0.69
348.15 K	1531.1 ± 2.2	25.24 ± 0.59
353.15 K	1525.7 ± 2.2	21.79 ± 0.51
358.15 K	1520.4 ± 2.2	18.97 ± 0.44
363.15 K	1515.3 ± 2.2	16.63 ± 0.39
368.15 K	1510.4 ± 2.1	14.68 ± 0.34
373.15 K	1505.5 ± 2.1	13.04 ± 0.3

CCCCCCOS(=O)(=O)[O-].CC[n+]1ccn(C)c1 [3-ethyl-1-methyl-1H-imidazolium hexyl sulfate]
Conditions	mass density [kg/m3]	viscosity [mPa·s]
268.15 K	1151.4 ± 1.5	3425.9 ± 200
273.15 K	1147.9 ± 1.5	2124.1 ± 120
278.15 K	1144.4 ± 1.4	1362.1 ± 68
283.15 K	1140.9 ± 1.4	904.77 ± 41
288.15 K	1137.4 ± 1.4	620.25 ± 25
293.15 K	1133.8 ± 1.4	437.53 ± 16
298.15 K	1130.4 ± 1.4	316.78 ± 11
303.15 K	1127 ± 2	234.83 ± 7.4
308.15 K	1123.7 ± 1.4	177.81 ± 5.2
313.15 K	1120.5 ± 1.4	137.23 ± 3.8
318.15 K	1117.2 ± 1.4	107.82 ± 2.8
323.15 K	1114 ± 2	86.06 ± 2.1
328.15 K	1110.8 ± 1.4	69.71 ± 1.7
333.15 K	1107.6 ± 1.4	57.21 ± 1.4
338.15 K	1104.4 ± 1.4	47.52 ± 1.1
343.15 K	1101.2 ± 1.4	39.91 ± 0.94
348.15 K	1097.9 ± 1.4	33.86 ± 0.79
353.15 K	1094.5 ± 1.4	29 ± 0.68
358.15 K	1091.2 ± 1.4	25.04 ± 0.58
363.15 K	1088.1 ± 1.4	21.8 ± 0.51
368.15 K	1085.1 ± 1.4	19.11 ± 0.44
373.15 K	1082.3 ± 1.4	16.87 ± 0.39

CCCC[N+]1(C)CCCC1.O=S(=O)([O-])C(F)(F)F [1-butyl-1-methylpyrrolidinium trifluoromethanesulfonate]
Conditions	mass density [kg/m3]	viscosity [mPa·s]
283.15 K	1263.6 ± 1.6	414.9 ± 15
288.15 K	1259.9 ± 1.6	299.4 ± 10
293.15 K	1256.1 ± 1.6	221.7 ± 6.9
298.15 K	1252.4 ± 1.6	167.87 ± 4.9
303.15 K	1248.7 ± 1.6	129.71 ± 3.5
308.15 K	1245.1 ± 1.6	102.06 ± 2.6
313.15 K	1241.5 ± 1.6	81.62 ± 2
318.15 K	1238 ± 1.6	66.24 ± 1.6
323.15 K	1234.4 ± 1.6	54.48 ± 1.3
328.15 K	1230.8 ± 1.6	45.34 ± 1.1
333.15 K	1227.3 ± 1.6	38.16 ± 0.9
338.15 K	1223.8 ± 1.6	32.45 ± 0.76
343.15 K	1220.3 ± 1.6	27.84 ± 0.65
348.15 K	1216.8 ± 1.6	24.08 ± 0.56
353.15 K	1213.3 ± 1.6	21 ± 0.49
358.15 K	1209.7 ± 1.6	18.44 ± 0.43
363.15 K	1205.9 ± 1.5	16.29 ± 0.38
368.15 K	1202.5 ± 1.5	14.48 ± 0.33
373.15 K	1199.2 ± 1.5	12.95 ± 0.3

Reference: the NIST ThermoML archive (doi:10.1021/je200883w)
